Reference: patent US9862726B2, “Opioid receptor modulating oxabicyclo[2.2.2]octane morphinans” (PURDUE PHARMA L.P., priority 2013, dated 2018)

Assays:
μ-opioid receptor [1] = biological target: T1, μ-opioid receptor (Homo sapiens (Human), UniProt P35372); assay: μ-opioid receptor radioligand dose-displacement binding assay (HEK-293 cells)
Experimental: Radioligand dose-displacement binding assays for μ-opioid receptors used 0.3 nM [^3H]-diprenorphine (Perkin Elmer, Shelton, Conn.), with […] membrane protein/well in a final volume of 500 μl binding buffer (10 mM MgCl2, 1 mM EDTA, 5% DMSO, 50 mM HEPES, pH 7.4). Reactions were carried out in the absence or presence of increasing concentrations of unlabeled naloxone. All reactions were conducted in 96-deep well polypropylene plates for 2 hours at room temperature. Binding reactions were terminated by rapid filtration onto 96-well Unifilter GF/C filter plates (Perkin Elmer, Shelton, Conn.), presoaked in 0.5% polyethylenimine using a 96-well tissue harvester (Perkin Elmer, Shelton, Conn.) followed by performing three filtration washes with 500 μl of ice-cold binding buffer. Filter plates were subsequently dried at 50° C. for 2-3 hours. BetaScint scintillation cocktail (Perkin Elmer, Shelton, Conn.) was added (50 μl/well), and plates were counted using a Packard Top-Count for 1 min/well. The data were analyzed using the one-site competition curve fitting functions in GraphPad PRISM™ v. 3.0 or higher (San Diego, Calif.), or an in-house function for one-site competition curve-fitting.
(§1) In TABLE 3, binding affinity of certain Compounds of the Invention to the μ- and κ-opioid receptors was determined as described above using HEK-293 cells.

[2] = biological target: recombinant human kappa opioid receptor (κ) (Homo sapiens (Human), UniProt P41145); assay: κ-opioid receptor radioligand dose-displacement binding assay (HEK-293 cells)
Experimental: Membranes from HEK-293 cells, CHO cells or U-2 OS cells expressing the recombinant human kappa opioid receptor (κ) were prepared by lysing cells in ice cold hypotonic buffer (2.5 mM MgCl2, 50 mM HEPES, pH 7.4) (10 mL/10 cm dish) followed by homogenization with a tissue grinder/Teflon pestle. Membranes from a cell line naturally expressing kappa opioid receptor can also be used. Membranes were collected by centrifugation at 30,000×g for 15 min at 4° C. and pellets were resuspended in hypotonic buffer to a final concentration of 1-3 mg/mL. Protein concentrations were determined using the BioRad protein assay reagent with bovine serum albumen as standard. Aliquots of κ receptor membranes were stored at −80° C.
Radioligand dose displacement assays used 0.4 nM [^3H]-U69,593 (GE Healthcare, Piscataway, N.J.; 40 Ci/mmole) with 15 μg membrane protein (recombinant κ opioid receptor expressed in HEK 293 cells; in-house prep) in a final volume of 200 μl binding buffer (5% DMSO, 50 mM Trizma base, pH 7.4). Non-specific binding was determined in the presence of 10 μM unlabeled naloxone or U69,593. All reactions were performed in 96-well polypropylene plates for 1 hour at a temperature of about 25° C. Binding reactions were terminated by rapid filtration onto 96-well Unifilter GF/C filter plates (Perkin Elmer, Shelton, Conn.) presoaked in 0.5% polyethylenimine (Sigma). Harvesting was performed using a 96-well tissue harvester (Perkin Elmer, Shelton, Conn.) followed by five filtration washes with 200 μl ice-cold binding buffer. Filter plates were subsequently dried at 50° C. for 1-2 hours. Fifty μl/well scintillation cocktail (Perkin Elmer, Shelton, Conn.) was added and plates were counted in a Packard Top-Count for 1 min/well.
as §1

μ-opioid receptor [3] = biological target: T1, μ-opioid receptor; assay: μ-opioid receptor [35S]GTPγS functional assay (HEK-293 cells); assay type: biochemical; details: for Emax: HEK-293 cells, relative to DAMGO
Experimental: (§2) [^35S]GTPγS functional assays were conducted using freshly thawed μ-receptor membranes prepared in-house from a cell line expressing recombinant μ opioid receptor in a HEK-293, CHO or U-2 OS cell background, or purchased from a commercial source (Perkin Elmer, Shelton, Conn.; or DiscovRx, Fremont, Calif.). Assay reactions were prepared by sequentially adding the following reagents to binding buffer (100 mM NaCl, 10 mM MgCl2, 20 mM HEPES, pH 7.4) on ice (final concentrations indicated): membrane protein (0.026 mg/mL), saponin ([…]), GDP ([…]) and [^35S]GTPγS (0.20 nM; Perkin Elmer, Shelton, Conn.). The prepared membrane solution (190 μl/well) was transferred to 96-shallow well polypropylene plates containing 10 μl of 20× concentrated stock solutions of the agonist [D-Ala^2, N-methyl-Phe^4 Gly-ol^5]-enkephalin (DAMGO) prepared in dimethyl sulfoxide (DMSO). Plates were incubated for 30 min at about 25° C. with shaking. Reactions were terminated by rapid filtration onto 96-well Unifilter GF/B filter plates (Perkin Elmer, Shelton, Conn.) using a 96-well tissue harvester (Perkin Elmer, Shelton, Conn.) followed by three filtration washes with 200 μl of ice-cold wash buffer (10 mM NaH2PO4, 10 mM Na2HPO4, pH 7.4). Filter plates were subsequently dried at 50° C. for 2-3 hours. BetaScint scintillation cocktail (Perkin Elmer, Shelton, Conn.) was added (50 μl/well) and plates were counted using a Packard Top-Count for 1 min/well. Data were analyzed using the sigmoidal dose-response curve fitting functions in GraphPad PRISM v. 3.0, or an in-house function for non-linear, sigmoidal dose-response curve-fitting. [^35S]GTPγS functional assays can also be conducted using freshly thawed μ-receptor membranes prepared from a cell line expressing recombinant μ opioid receptor in a CHO-K1 cell background.
(§3) μ GTP EC50 is the concentration of a compound providing 50% of the maximal response for the compound at a μ-opioid receptor.
(§4) μ GTP Emax (%) is the maximal effect elicited by a compound relative to the effect elicited by DAMGO, a standard μ agonist.
In TABLE 4, activity response of certain Compounds of the Invention to the μ- and κ-opioid receptors was determined as described above for functional assays using HEK-293 cells.

μ-opioid receptor [4] = biological target: T1, μ-opioid receptor; assay: μ-opioid receptor functional assay (U-2 OS cells); assay type: biochemical; details: for Emax: U-2 OS cells, relative to DAMGO
Experimental: as §2, §3, §4

κ-opioid receptor = κ-opioid receptor (Homo sapiens (Human), UniProt P41145); assay: κ-opioid receptor functional assay (U-2 OS cells); assay type: biochemical; details: for Emax: U-2 OS cells, relative to U69,593
Experimental: Functional [^35S]GTPγS binding assays were conducted as follows. κ opioid receptor membrane solution was prepared by sequentially adding final concentrations of 0.026 μg/μl κ membrane protein (in-house), 10 μg/mL saponin, 3 μM GDP and 0.20 nM [^35S]GTPγS to binding buffer (100 mM NaCl, 10 mM MgCl2, 20 mM HEPES, pH 7.4) on ice. The prepared membrane solution (190 μl/well) was transferred to 96-shallow well polypropylene plates containing 10 μl of 20× concentrated stock solutions of agonist prepared in DMSO. Plates were incubated for 30 min at a temperature of about 25° C. with shaking. Reactions were terminated by rapid filtration onto 96-well Unifilter GF/B filter plates (Perkin Elmer, Shelton, Conn.) using a 96-well tissue harvester (Packard) and followed by three filtration washes with 200 μl ice-cold binding buffer (10 mM NaH2PO4, 10 mM Na2HPO4, pH 7.4). Filter plates were subsequently dried at 50° C. for 2-3 hours. Fifty μl/well scintillation cocktail (Perkin Elmer, Shelton, Conn.) was added and plates were counted in a Packard Top-Count for 1 min/well.
κ GTP EC50 is the concentration of a compound providing 50% of the maximal response for the compound at a κ receptor.
κ GTP Emax (%) is the maximal effect elicited by a compound relative to the effect elicited by U69,593.
The following TABLE 5 provides results on the activity response of certain Compounds of the Invention at the μ- and κ-opioid receptors determined as described above using U-2 OS cells.

| Compound | Ki (μ-opioid receptor [1]) | Ki [2] | EC50 (μ-opioid receptor [3]) | Emax (μ-opioid receptor [3]) | EC50 (μ-opioid receptor [4]) | Emax (μ-opioid receptor [4]) | EC50 (κ-opioid receptor) | Emax (κ-opioid receptor) |
| --- | --- | --- | --- | --- | --- | --- | --- | --- |
| COc1ccc2c(c1)[C@]13CCN(CC4CC4)[C@H](C2)[C@]12CC[C@@](N)(CO2)C3 [Compound 8, (4bR,6S,8aS,9R)-11-(cyclopropylmethyl)-3-methoxy-5,6,7,8,9,10-hexahydro-9,4b-(epiminoethano)-8a,6-(epoxymethano)phenanthren-6-amine] | 773 ± 161 nM | 4.72 ± 1.07 nM | 1110 ± 242 nM | 27.8 ± 2.17% | 88.8 ± 20.6 nM | 106 ± 2.96% | 34.5 ± 3.61 nM | 112 ± 1.33% |
| COc1ccc2c(c1)[C@]13CCN(CC4CC4)[C@H](C2)[C@]12CC[C@@](NCc1ccccc1)(CO2)C3 [Compound 10, (4bR,6S,8aS,9R)-N-benzyl-11-(cyclopropylmethyl)-3-methoxy-5,6,7,8,9,10-hexahydro-9,4b-(epiminoethano)-8a,6-(epoxymethano)phenanthren-6-amine] | 25.9 ± 5.36 nM | 0.026 nM | 53.3 ± 3.93 nM | 31.7 ± 1.67% | 2.08 ± 0.12 nM | 110 ± 2.52% | 0.23 ± 0.01 nM | 107 ± 5.36% |
| COc1ccc2c(c1)[C@]13CCN(CC4CC4)[C@H](C2)[C@]12CC[C@@](NCC1CCCCC1)(CO2)C3 [Compound 11, (4bR,6S,8aS,9R)—N-(cyclohexylmethyl)-11-(cyclopropylmethyl)-3-methoxy-5,6,7,8,9,10-hexahydro-9,4b-(epiminoethano)-8a,6-(epoxymethano)phenanthren-6-amine] | 0.93 ± 0.11 nM | 0.052 ± 0.015 nM | 1.78 ± 0.05 nM | 75.7 ± 4.1% | 0.033 nM | 101 ± 2.08% | 0.042 nM | 101.3 ± 0.88% |
| COc1ccc2c(c1)[C@]13CCN(CC4CC4)[C@H](C2)[C@]12CC[C@@](NC(=O)c1ccccc1)(CO2)C3 [Compound 18, N-((4bR,6S,8aS,9R)-11-(cyclopropylmethyl)-3-methoxy-5,6,7,8,9,10-hexahydro-9,4b-(epiminoethano)-8a,6-(epoxymethano)phenanthren-6-yl)benzamide] | 35.9 ± 8.18 nM | 0.032 ± 0.01 nM | 175 ± 21.7 nM | 41 ± 1.58% | 7.53 ± 0.69 nM | 107 ± 8.35% | 0.42 ± 0.016 nM | 111 ± 2.6% |
| COc1ccc2c(c1)[C@]13CCN(CC4CC4)[C@H](C2)[C@]12CC[C@@](NC(=O)CCc1ccccc1)(CO2)C3 [Compound 19, N-((4bR,6S,8aS,9R)-11-(cyclopropylmethyl)-3-methoxy-5,6,7,8,9,10-hexahydro-9,4b-(epiminoethano)-8a,6-(epoxymethano)phenanthren-6-yl)-3-phenylpropanamide] | 9.26 ± 3.2 nM | 1.58 ± 0.44 nM | 41.2 ± 12.8 nM | 29.8 ± 1.96% | 1.37 ± 0.11 nM | 102 ± 5.7% | 2.84 ± 0.33 nM | 109.7 ± 0.33% |
| COc1ccc2c(c1)[C@]13CCN(CC4CC4)[C@H](C2)[C@]12CC[C@@](NC(=O)c1ccc(Cl)cc1)(CO2)C3 [Compound 20, N-((4bR,6S,8aS,9R)-11-(cyclopropylmethyl)-3-methoxy-5,6,7,8,9,10-hexahydro-9,4b-(epiminoethano)-8a,6-(epoxymethano)phenanthren-6-yl)-4-chlorobenzamide] | 24.7 ± 3.5 nM | 0.6 ± 0.098 nM | 52.4 ± 11.7 nM | 20.2 ± 0.48% | 3.23 ± 0.13 nM | 102 ± 2.85% | 3.24 ± 0.082 nM | 115 ± 2.85% |
| COc1ccc2c(c1)[C@]13CCN(CC4CC4)[C@H](C2)[C@]12CC[C@@](NC(=O)C1CC1)(CO2)C3 [Compound 22, N-((4bR,6S,8aS,9R)-11-(cyclopropylmethyl)-3-methoxy-5,6,7,8,9,10-hexahydro-9,4b-(epiminoethano)-8a,6-(epoxymethano)phenanthren-6-yl)cyclopropanecarboxamide] | 126 ± 20.7 nM | 0.3 ± 0.055 nM | 939 ± 394 nM | 18 ± 0.41% | 71.2 ± 10.8 nM | 90.7 ± 2.73% | 0.9 ± 0.096 nM | 111 ± 2.6% |
| COc1ccc2c(c1)[C@]13CCN(CC4CC4)[C@H](C2)[C@]12CC[C@@](NC(=O)CC(F)(F)F)(CO2)C3 [Compound 23, N-((4bR,6S,8aS,9R)-11-(cyclopropylmethyl)-3-methoxy-5,6,7,8,9,10-hexahydro-9,4b-(epiminoethano)-8a,6-(epoxymethano)phenanthren-6-yl)-3,3,3-trifluoropropanamide] | 136 ± 35.7 nM | 0.66 ± 0.22 nM | 419 ± 108 nM | 39.5 ± 2.1% | 21.6 ± 1.38 nM | 98.7 ± 1.45% | 1.79 ± 0.25 nM | 115 ± 3.06% |
| COc1ccc2c(c1)[C@]13CCN(CC4CC4)[C@H](C2)[C@]12CC[C@@](NS(=O)(=O)c1ccc(Cl)cc1)(CO2)C3 [Compound 24, 4-Chloro-N-((4bR,6S,8aS,9R)-11-(cyclopropylmethyl)-3-methoxy-5,6,7,8,9,10-hexahydro-9,4b-(epiminoethano)-8a,6-(epoxymethano)phenanthren-6-yl)-benzenesulfonamide] | 0.29 ± 0.043 nM | 0.057 ± 0.01 nM | > 20000 nM | 6% | 0.25 ± 0.014 nM | 71.7 ± 0.67% | 0.11 ± 0.011 nM | 114 ± 2.73% |
